Measured values from US10160747B2, “Compounds and methods for kinase modulation, and indications therefor” (Plexxikon Inc., priority 2016, dated 2018).

How the values were obtained:
[1] = system: MOLM-14 F691L (endogenous FLT3 ITD and transfected FLT3 F691L); assay: MOLM-14 F691L cell proliferation assay (CellTiter-Glo); format: cell-based; conditions: Homo sapiens, MOLM-14, 72 h; 3 d growth, GMean
Procedure, shortened: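 MOLM-14 derivatives carrying D835Y or F691L, selected under escalating AC220, were seeded at 1×10^4 cells/well and exposed to an 8-point 1:3 compound series (1 to 0.00046 μM, 0.2% DMSO final) for three days at 37° C., 5% CO2. CellTiter-Glo luminescence (ATP content) versus concentration gave IC50.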

[2] = biological target: T1, BA/F3-FLT3-ITD + D835Y (Homo sapiens, UniProt P36888, D835Y, cells depend on it, form not given); assay: Engineered BA/F3 cell growth assay, FLT3 ITD/D835Y; format: cell-based, murine; conditions: 3 d growth
T1 sequence (P36888 with tags, fused parts or gaps INS600HVDFREYEYD/D835Y): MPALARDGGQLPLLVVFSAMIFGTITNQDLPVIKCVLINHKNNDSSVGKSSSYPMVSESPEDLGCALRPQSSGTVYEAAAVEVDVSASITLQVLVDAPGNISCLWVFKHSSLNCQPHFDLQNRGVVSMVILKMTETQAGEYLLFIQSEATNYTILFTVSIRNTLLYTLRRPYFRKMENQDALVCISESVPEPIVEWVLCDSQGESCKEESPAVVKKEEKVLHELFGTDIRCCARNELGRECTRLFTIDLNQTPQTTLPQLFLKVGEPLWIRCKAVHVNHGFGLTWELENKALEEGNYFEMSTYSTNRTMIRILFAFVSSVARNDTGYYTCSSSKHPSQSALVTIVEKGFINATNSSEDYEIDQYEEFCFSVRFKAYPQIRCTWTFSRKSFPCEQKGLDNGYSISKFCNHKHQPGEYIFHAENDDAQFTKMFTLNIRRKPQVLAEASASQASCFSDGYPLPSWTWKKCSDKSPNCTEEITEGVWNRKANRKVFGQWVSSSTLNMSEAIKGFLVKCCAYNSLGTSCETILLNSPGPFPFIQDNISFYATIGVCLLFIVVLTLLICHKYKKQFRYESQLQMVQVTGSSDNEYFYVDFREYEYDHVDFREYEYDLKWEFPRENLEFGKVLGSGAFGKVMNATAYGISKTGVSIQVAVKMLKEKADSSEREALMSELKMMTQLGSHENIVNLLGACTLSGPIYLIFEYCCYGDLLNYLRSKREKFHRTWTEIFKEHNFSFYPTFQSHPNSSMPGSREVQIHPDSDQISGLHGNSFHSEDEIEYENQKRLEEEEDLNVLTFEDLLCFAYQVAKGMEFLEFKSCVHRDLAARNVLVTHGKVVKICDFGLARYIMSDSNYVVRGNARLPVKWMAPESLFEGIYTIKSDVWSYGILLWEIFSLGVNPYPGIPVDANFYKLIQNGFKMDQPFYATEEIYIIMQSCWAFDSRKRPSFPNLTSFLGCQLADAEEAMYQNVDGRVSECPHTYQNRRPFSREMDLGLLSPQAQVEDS
Procedure, shortened: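 Murine Ba/F3 cells transfected with full-length FLT3 ITD/D835Y, grown without IL-3 so growth depends on FLT3. Seeded at 1×10^4 cells/well, 8-point 1:3 series to 1 μM top (0.2% DMSO), 3 days at 37 °C. CellTiter-Glo luminescence (ATP) versus concentration gave IC50.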

Row | IC50 [1] [µM] | GI50 [2] [µM] | Compound
1 | 0.0001 to 10 | 0.0001 to 10 | CCn1cc(Nc2ncc(-c3ccc(CC(=O)Nc4cnc(Cl)c(C(F)(F)F)c4)cc3)cn2)cn1 [Compound P-0165, N-[6-chloro-5-(trifluoromethyl)-3-pyridyl]-2-[4-[2-[(1-ethylpyrazol-4-yl)amino]pyrimidin-5-yl]phenyl]acetamide]
2 | 0.0001 to 10 | 0.0001 to 10 | CCn1cc(Nc2ncc(-c3ccc(CC(=O)Nc4cncc(C(F)(F)F)c4)cc3)cn2)cn1 [Compound P-0166, 2-[4-[2-[(1-ethylpyrazol-4-yl)amino]pyrimidin-5-yl]phenyl]-N-[5-(trifluoromethyl)-3-pyridyl]acetamide]
3 | 0.0001 to 10 | 0.0001 to 10 | Cn1cnc(Nc2ncc(-c3ccc(CC(=O)Nc4cncc(C(F)(F)F)c4)cc3)cn2)c1 [Compound P-0167]
4 | 0.0001 to 10 | 0.0001 to 10 | Cn1cnc(Nc2ncc(-c3ccc(CC(=O)Nc4cnc(F)c(C(C)(F)F)c4)cc3)cn2)c1 [Compound P-0168, N-[5-(1,1-difluoroethyl)-6-fluoro-3-pyridyl]-2-[4-[2-[(1-methylimidazol-4-yl)amino]pyrimidin-5-yl]phenyl]acetamide]
5 | 0.0001 to 10 | 0.0001 to 10 | Cn1cnc(Nc2ncc(-c3ccc(CC(=O)Nc4cc(C(C)(F)F)ccn4)cc3)cn2)c1 [Compound P-0169, N-[4-(1,1-difluoroethyl)-2-pyridyl]-2-[4-[2-[(1-methylimidazol-4-yl)amino]pyrimidin-5-yl]phenyl]acetamide]
6 | 0.0001 to 10 | 0.0001 to 10 | COCCn1cc(Nc2ncc(-c3ccc(CC(=O)Nc4cncc(C(F)(F)F)c4)cc3)cn2)cn1 [Compound P-0178, 2-[4-[2-[[1-(2-methoxyethyl)pyrazol-4-yl]amino]pyrimidin-5-yl]phenyl]-N-[5-(trifluoromethyl)-3-pyridyl]acetamide]
7 | 0.0001 to 10 | 0.0001 to 10 | COCCn1cc(Nc2ncc(-c3ccc(CC(=O)Nc4cnc(C)c(C(F)(F)F)c4)cc3)cn2)cn1 [Compound P-0179, 2-[4-[2-[[1-(2-methoxyethyl)pyrazol-4-yl]amino]pyrimidin-5-yl]phenyl]-N-[6-methyl-5-(trifluoromethyl)-3-pyridyl]acetamide]
8 | 0.0001 to 10 | 0.0001 to 10 | COc1nn(C[C@H](C)O)cc1Nc1ncc(-c2ccc(CC(=O)Nc3cnc(C)c(C(F)(F)F)c3)cc2)cn1 [Compound P-0180, 2-[4-[2-[[1-[(2S)-2-hydroxypropyl]-3-methoxy-pyrazol-4-yl]amino]pyrimidin-5-yl]phenyl]-N-[6-methyl-5-(trifluoromethyl)-3-pyridyl]acetamide]
9 | 0.0001 to 10 | 0.0001 to 10 | O=C(Cc1ccc(-c2cnc3[nH]c(-c4ccnc(N5CCOCC5)c4)cc3c2)cn1)Nc1ccnc(C(F)(F)F)c1 [Compound P-0181, 2-[5-[2-(2-morpholino-4-pyridyl)-1H-pyrrolo[2,3-b]pyridin-5-yl]-2-pyridyl]-N-[2-(trifluoromethyl)-4-pyridyl]acetamide]
10 | 0.0001 to 10 | 0.0001 to 10 | N#Cc1cc(-c2cc3cc(-c4ccc(CC(=O)Nc5ccnc(C(F)(F)F)c5)nc4)cnc3[nH]2)ccn1 [Compound P-0182, 2-[5-[2-(2-cyano-4-pyridyl)-1H-pyrrolo[2,3-b]pyridin-5-yl]-2-pyridyl]-N-[2-(trifluoromethyl)-4-pyridyl]acetamide]

Further lines, the compound ahead of its results:

Row | Compound | IC50 [1] [µM] | GI50 [2] [µM]
11 | Cn1cc(Nc2ncc(-c3ccc(CC(=O)Nc4cnc(Cl)c(C(F)(F)F)c4)cc3)cn2)cn1 [Compound P-0145, N-[6-chloro-5-(trifluoromethyl)-3-pyridyl]-2-[4-[2-[(1-methylpyrazol-4-yl)amino]pyrimidin-5-yl]phenyl]acetamide] | 0.0001 to 10 | 0.0001 to 10
12 | Cn1cc(Nc2ncc(-c3ccc(CC(=O)Nc4ccc(C(C)(C)C#N)nc4)cc3)cn2)cn1 [Compound P-0146, N-[6-(1-cyano-1-methyl-ethyl)-3-pyridyl]-2-[4-[2-[(1-methylpyrazol-4-yl)amino]pyrimidin-5-yl]phenyl]acetamide] | 0.0001 to 10 | 0.0001 to 10
13 | COc1ncc(NC(=O)Cc2ccc(-c3cnc(Nc4cn(C)cn4)nc3)cc2)cc1C(F)(F)F [Compound P-0149, N-[6-methoxy-5-(trifluoromethyl)-3-pyridyl]-2-[4-[2-[(1-methylimidazol-4-yl)amino]pyrimidin-5-yl]phenyl]acetamide] | 0.0001 to 10 | 0.0001 to 10
14 | Cc1ncc(NC(=O)Cc2ccc(-c3cnc(Nc4cn(C)cn4)nc3)cc2)cc1C(F)(F)F [Compound P-0150, 2-[4-[2-[(1-methylimidazol-4-yl)amino]pyrimidin-5-yl]phenyl]-N-[6-methyl-5-(trifluoromethyl)-3-pyridyl]acetamide] | 0.0001 to 10 | 0.0001 to 10
15 | Cn1cc(Nc2ncc(-c3ccc(CC(=O)Nc4cccc(C(F)(F)F)n4)cc3)cn2)cn1 [Compound P-0152, 2-[4-[2-[(1-methylpyrazol-4-yl)amino]pyrimidin-5-yl]phenyl]-N-[6-(trifluoromethyl)-2-pyridyl]acetamide] | 0.0001 to 10 | 0.0001 to 10
16 | Cn1cc(Nc2ncc(-c3ccc(CC(=O)Nc4ccnc(S(C)(=O)=O)c4)cc3)cn2)cn1 [Compound P-0154, 2-[4-[2-[(1-methylpyrazol-4-yl)amino]pyrimidin-5-yl]phenyl]-N-(2-methylsulfonyl-4-pyridyl)acetamide] | 0.0001 to 10 | 0.0001 to 10
17 | Cn1cc(Nc2ncc(-c3ccc(CC(=O)Nc4cccc(S(C)(=O)=O)c4)cc3)cn2)cn1 [Compound P-0155, 2-[4-[2-[(1-methylpyrazol-4-yl)amino]pyrimidin-5-yl]phenyl]-N-(3-methylsulfonylphenyl)acetamide] | 0.0001 to 10 | 0.0001 to 10
18 | Cn1cc(Nc2ncc(-c3ccc(CC(=O)Nc4ccc(S(C)(=O)=O)cc4)cc3)cn2)cn1 [Compound P-0156, 2-[4-[2-[(1-methylpyrazol-4-yl)amino]pyrimidin-5-yl]phenyl]-N-(4-methylsulfonylphenyl)acetamide] | 0.0001 to 10 | 0.0001 to 10
19 | Cn1cc(Nc2ncc(-c3ccc(CC(=O)Nc4cccc(OC(F)(F)F)c4)cc3)cn2)cn1 [Compound P-0157, 2-[4-[2-[(1-methylpyrazol-4-yl)amino]pyrimidin-5-yl]phenyl]-N-[3-(trifluoromethoxy)phenyl]acetamide] | 0.0001 to 10 | 0.0001 to 10
20 | Cn1cc(Nc2ncc(-c3ccc(CC(=O)Nc4cccc(C(C)(C)C#N)c4)cc3)cn2)cn1 [Compound P-0158, N-[3-(1-cyano-1-methyl-ethyl)phenyl]-2-[4-[2-[(1-methylpyrazol-4-yl)amino]pyrimidin-5-yl]phenyl]acetamide] | 0.0001 to 10 | 0.0001 to 10
21 | Cn1cc(Nc2ncc(-c3ccc(CC(=O)NCc4ncccc4C(F)(F)F)cc3)cn2)cn1 [Compound P-0159, 2-[4-[2-[(1-methylpyrazol-4-yl)amino]pyrimidin-5-yl]phenyl]-N-[[3-(trifluoromethyl)-2-pyridyl]methyl]acetamide] | 0.0001 to 10 | 0.0001 to 10
22 | COc1ccccc1CNC(=O)Cc1ccc(-c2cnc(Nc3cnn(C)c3)nc2)cc1 [Compound P-0160, N-[(2-methoxyphenyl)methyl]-2-[4-[2-[(1-methylpyrazol-4-yl)amino]pyrimidin-5-yl]phenyl]acetamide] | 0.0001 to 10 | 0.0001 to 10
23 | Cn1cc(Nc2ncc(-c3ccc(CC(=O)NCc4cncc(C(F)(F)F)c4)cc3)cn2)cn1 [Compound P-0161, 2-[4-[2-[(1-methylpyrazol-4-yl)amino]pyrimidin-5-yl]phenyl]-N-[[5-(trifluoromethyl)-3-pyridyl]methyl]acetamide] | 0.0001 to 10 | 0.0001 to 10
24 | Cn1cc(Nc2ncc(-c3ccc(CC(=O)Nc4cc(Cl)c(C5CC5)cn4)cc3)cn2)cn1 [Compound P-0164, N-(4-chloro-5-cyclopropyl-2-pyridyl)-2-[4-[2-[(1-methylpyrazol-4-yl)amino]pyrimidin-5-yl]phenyl]acetamide] | 0.0001 to 10 | 0.0001 to 10
